The values that follow come from publication PMC10390517, “Design, synthesis, in vitro, and in silico evaluations of benzo[d]imidazole-amide-1,2,3-triazole-N-arylacetamide hybrids as new antidiabetic agents targeting α-glucosidase” (Scientific Reports, 2023).

Data set [1] addresses T1, α-glucosidase (Saccharomyces cerevisiae, UniProt P53341). Briefly: biochemical. In kind it is biochemical. Particulars: for IC50: yeast form of α-glucosidase, mean ± S.E. of at least three different experiments; for activity against α-glucosidase (in words): SAR discussion / conclusion, compared with acarbose. As to the method: The newly synthesized benzo[d]imidazole-amide-1,2,3-triazole-N-arylacetamide hybrids 8a–n were evaluated against yeast form of α-glucosidase.

Data set [2] deals with breast cancer cell line (MCF-7). In words: In vitro cytotoxicity by MTT method, MCF-7. To be noted: cancer cell line MCF-7.
Data set [3] in a line: In vitro cytotoxicity by MTT method, MCF-7. To be noted: human, MCF-7 breast cancer cells.
Data set [4] has as its system normal human cell line (HDF). In words: In vitro cytotoxicity by MTT method, HDF. Particulars: normal cell line HDF.
Data set [5] can be described thus: In vitro cytotoxicity by MTT method, HDF. To be noted: human, HDF normal human cells.
Data set [6] has as its target T1, α-glucosidase. Briefly: Kinetic study of α-glucosidase inhibition (Lineweaver–Burk plots). The class given is biochemical, yeast. As to the method:
Therefore, values of Vmax remained constant while the values of Km increased. […] Besides, the Ki value was 40.0 µM that was obtained by the secondary plot of Lineweaver–Burk plots (Fig. 2b).
Figure 2 Inhibitory kinetics of compound 8c on α-glucosidase. (a) Lineweaver–Burk plots for inhibition of compound 8c. (b) The secondary plot of Lineweaver–Burk plots for determination Ki value of compound 8c.
In vitro anti-α-glucosidase inhibition and kinetic study of the new compounds 8a–n were performed exactly according to our pervious reported works.

Where [7] appears, read: IC50 (α-glucosidase inhibitory activity).
Where [8] appears, read: read-out: IC50 (α-glucosidase inhibitory activity).

Like-named read-outs stand apart in the source and are kept apart here. A value given as a limit tells only on which side of the number the result lay.

T1 sequence (P53341 whole entry): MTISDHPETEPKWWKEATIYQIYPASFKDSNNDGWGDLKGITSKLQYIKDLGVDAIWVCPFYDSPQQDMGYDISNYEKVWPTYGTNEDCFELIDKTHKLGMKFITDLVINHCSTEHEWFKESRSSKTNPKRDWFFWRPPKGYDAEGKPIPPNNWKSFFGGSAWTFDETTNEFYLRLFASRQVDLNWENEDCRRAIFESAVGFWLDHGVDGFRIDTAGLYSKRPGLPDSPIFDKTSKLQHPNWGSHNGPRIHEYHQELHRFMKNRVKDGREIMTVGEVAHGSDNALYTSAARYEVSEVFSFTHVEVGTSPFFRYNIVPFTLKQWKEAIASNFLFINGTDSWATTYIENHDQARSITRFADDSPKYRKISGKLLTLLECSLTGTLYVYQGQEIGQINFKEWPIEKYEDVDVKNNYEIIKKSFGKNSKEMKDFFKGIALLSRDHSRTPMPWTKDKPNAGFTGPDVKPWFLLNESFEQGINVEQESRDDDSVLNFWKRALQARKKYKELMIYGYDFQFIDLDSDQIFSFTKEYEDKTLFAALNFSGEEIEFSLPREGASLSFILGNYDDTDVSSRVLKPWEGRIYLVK

For `O=C(Cn1cc(CNC(=O)c2nc3ccccc3[nH]2)nn1)Nc1ccc(Cl)cc1` [8k, N-((1-(2-((4-chlorophenyl)amino)-2-oxoethyl)-1H-1,2,3-triazol-4-yl)methyl)-1H-benzo[d]imidazole-2-carboxamide], the melting point lay within 236 to 238 °C. In data set [1] (setting [7]), this compound came in with an IC50 of 134.2 ± 0.9 µM.
Compound `O=C(Cn1cc(CNC(=O)c2nc3ccccc3[nH]2)nn1)Nc1ccc(Br)cc1` [8m, N-((1-(2-((4-bromophenyl)amino)-2-oxoethyl)-1H-1,2,3-triazol-4-yl)methyl)-1H-benzo[d]imidazole-2-carboxamide] registered a melting point of 227 to 229 °C. For the same compound, half-maximal inhibition in data set [1] (setting [7]) (IC50) was put at 183.6 ± 0.8 µM.
The compound `Cc1cccc(NC(=O)Cn2cc(CNC(=O)c3nc4ccccc4[nH]3)nn2)c1` [8c, N-((1-(2-oxo-2-(m-tolylamino)ethyl)-1H-1,2,3-triazol-4-yl)methyl)-1H-benzo[d]imidazole-2-carboxamide] displayed a melting point of 206 to 208 °C. Further, the “cytotoxic activity (in words)” value in data set [2] is on record as “did not show cytotoxic activity”. Further, the IC50 in data set [3] was over 200 µM. Further, the IC50 in data set [1] (setting [7]) turned out to be 49 ± 0.4 µM. Moreover, the “fold more potent than positive control (acarbose)” value in data set [1] (ratio of IC50 values vs acarbose) stood at 15.3 fold. Besides, the “cytotoxic activity (in words)” value in data set [4] is on record as “did not show cytotoxic activity”. The compound further returned an IC50 in data set [5] of over 200 µM. The “inhibition mechanism against α-glucosidase” value in data set [6] (Lineweaver–Burk plot, Vmax constant, Km increased) is on record as “competitive inhibitor”. Also, the affinity in data set [6] (secondary plot of Lineweaver–Burk plots) corresponds to a Ki of 40 µM.
Turning to `Cc1cccc(NC(=O)Cn2cc(CNC(=O)c3nc4ccccc4[nH]3)nn2)c1C` [8e, N-((1-(2-((2,3-dimethylphenyl)amino)-2-oxoethyl)-1H-1,2,3-triazol-4-yl)methyl)-1H-benzo[d]imidazole-2-carboxamide], the melting point is 216 to 218 °C. For the same compound, the “cytotoxic activity (in words)” value in data set [2] is “did not show cytotoxic activity”. The IC50 in data set [3] was over 200 µM. The “inhibitory activity diminished (fold) relative to 8c” value in data set [1] (addition of a 2-methyl group to 3-methyl derivative 8c) is reported as “around 2.5 fold”. In data set [1] (setting [8]), the IC50 was 119.2 ± 0.8 µM. Moreover, the “cytotoxic activity (in words)” value in data set [4] is “did not show cytotoxic activity”. In data set [5], the IC50 was over 200 µM.
In turn, `Cc1ccccc1NC(=O)Cn1cc(CNC(=O)c2nc3ccccc3[nH]2)nn1` [8b, N-((1-(2-oxo-2-(o-tolylamino)ethyl)-1H-1,2,3-triazol-4-yl)methyl)-1H-benzo[d]imidazole-2-carboxamide] displayed an IC50 in data set [1] (setting [7]) of over 750 µM. For the same compound, in data set [1], the “activity against α-glucosidase (in words)” value was “have not activity”.
The compound `Cc1cccc(C)c1NC(=O)Cn1cc(CNC(=O)c2nc3ccccc3[nH]2)nn1` [8g, N-((1-(2-((2,6-dimethylphenyl)amino)-2-oxoethyl)-1H-1,2,3-triazol-4-yl)methyl)-1H-benzo[d]imidazole-2-carboxamide] showed a melting point of 222 to 224 °C. Further, the “cytotoxic activity (in words)” value in data set [2] was “did not show cytotoxic activity”. Also, the half-inhibitory concentration (IC50) in data set [3] was over 200 µM. For the same compound, in data set [1] (setting [8]), the IC50 stood at 125.6 ± 0.3 µM. The “cytotoxic activity (in words)” value in data set [4] is “did not show cytotoxic activity”. This compound had an IC50 in data set [5] of over 200 µM.
In turn, `Cc1ccc(NC(=O)Cn2cc(CNC(=O)c3nc4ccccc4[nH]3)nn2)cc1` [8d, N-((1-(2-oxo-2-(p-tolylamino)ethyl)-1H-1,2,3-triazol-4-yl)methyl)-1H-benzo[d]imidazole-2-carboxamide] showed a melting point of 209 to 211 °C. This compound also showed a half-maximal inhibitory concentration (IC50) in data set [1] (setting [7]) of over 750 µM. Moreover, in data set [1], the “activity against α-glucosidase (in words)” value is reported as “have not activity”.
Compound `O=C(Cn1cc(CNC(=O)c2nc3ccccc3[nH]2)nn1)Nc1ccc([N+](=O)[O-])cc1` [8n, N-((1-(2-((4-nitrophenyl)amino)-2-oxoethyl)-1H-1,2,3-triazol-4-yl)methyl)-1H-benzo[d]imidazole-2-carboxamide] had a melting point of 259 to 261 °C. For the same compound, in data set [1] (setting [8]), the IC50 was over 750 µM.
In turn, `CCc1ccc(NC(=O)Cn2cc(CNC(=O)c3nc4ccccc4[nH]3)nn2)cc1` [8h, N-((1-(2-((4-ethylphenyl)amino)-2-oxoethyl)-1H-1,2,3-triazol-4-yl)methyl)-1H-benzo[d]imidazole-2-carboxamide] displayed a melting point of 213 to 215 °C. The IC50 in data set [1] (setting [8]) was 251.9 ± 1.6 µM.
In turn, `O=C(Cn1cc(CNC(=O)c2nc3ccccc3[nH]2)nn1)Nc1ccc(Cl)cc1Cl` [8l, N-((1-(2-((2,4-dichlorophenyl)amino)-2-oxoethyl)-1H-1,2,3-triazol-4-yl)methyl)-1H-benzo[d]imidazole-2-carboxamide] displayed a melting point of 247 to 249 °C. For the same compound, the IC50 in data set [1] (setting [8]) turned out to be 668.5 ± 1.4 µM.
Turning to `Cc1ccc(NC(=O)Cn2cc(CNC(=O)c3nc4ccccc4[nH]3)nn2)c(C)c1` [8f, N-((1-(2-((2,4-dimethylphenyl)amino)-2-oxoethyl)-1H-1,2,3-triazol-4-yl)methyl)-1H-benzo[d]imidazole-2-carboxamide], the melting point lay within 226 to 228 °C. The IC50 in data set [1] (setting [8]) is 422.6 ± 1.1 µM.
As for `COc1ccc(NC(=O)Cn2cc(CNC(=O)c3nc4ccccc4[nH]3)nn2)cc1` [8i, N-((1-(2-((4-methoxyphenyl)amino)-2-oxoethyl)-1H-1,2,3-triazol-4-yl)methyl)-1H-benzo[d]imidazole-2-carboxamide], the melting point lay in the range of 235 to 237 °C. Also, the IC50 in data set [1] (setting [7]) was over 750 µM.
The like results for `O=C(Cn1cc(CNC(=O)c2nc3ccccc3[nH]2)nn1)Nc1ccc(F)cc1` [8j, N-((1-(2-((4-fluorophenyl)amino)-2-oxoethyl)-1H-1,2,3-triazol-4-yl)methyl)-1H-benzo[d]imidazole-2-carboxamide] were, in that order, 245 to 247 °C and over 750 µM.
On to `O=C(Cn1cc(CNC(=O)c2nc3ccccc3[nH]2)nn1)Nc1ccccc1` [8a, N-((1-(2-oxo-2-(phenylamino)ethyl)-1H-1,2,3-triazol-4-yl)methyl)-1H-benzo[d]imidazole-2-carboxamide], for which the “activity against α-glucosidase (in words)” value in data set [1] is “have not activity”. Also, the 50% inhibitory concentration (IC50) in data set [1] (setting [8]) is over 750 µM.
